Measured values: US6770593B1, “Fertilizer” (Mandops (UK) Limited, priority 1999, dated 2004)

Legend:
Format in all cases: in vivo
Powdery Mildew [1] = assay: Powdery mildew on spring barley, with chlormequat (Table E1); conditions: applied at 3 leaves stage, CCC 1.25 l/ha, ATS 1.25 l/ha, KS 20 g/ha
Spring Barley [2] = assay: Growth of spring barley, with chlormequat (Table E1); conditions: applied at 3 leaves stage, CCC 1.25 l/ha, ATS 1.25 l/ha, KS 20 g/ha
Powdery Mildew [3] = assay: Powdery mildew on spring barley, with chlormequat at T1 and T2 (Table E2); conditions: applied at T1 (3 leaves stage) & T2 (prior to start of stem extension), CCC 0.8 l/ha, ATS 0.8 l/ha, KS 20 g/ha
Spring Barley [4] = assay: Tillers of spring barley, with chlormequat at T1 and T2 (Table E2); conditions: applied at T1 (3 leaves stage) & T2 (prior to start of stem extension), CCC 0.8 l/ha, ATS 0.8 l/ha, KS 20 g/ha

C[N+](C)(C)CCCl.[Cl-] [CCC, Chlormequat]
Powdery Mildew (%) at +15 days (Powdery Mildew [1]): 15%
Above Ground Dry Weight (g) Total of 10 plants (Spring Barley [2]): 3.7 g
Above Ground Fresh Weight (g) Total of 10 plants (Spring Barley [2]): 34.0 g
Amount of Rooting (0-9) Mean of 10 plants (Spring Barley [2]): 5.5
Powdery Mildew (%) at +12 days (Powdery Mildew [3]): 8%
Powdery Mildew (%) at +15 days (Powdery Mildew [3]): 8%
Powdery Mildew (%) at +18 days (Powdery Mildew [3]): 10%
Number of Tillers Initiated per Plant (mean of 10 plants) (Spring Barley [4]): 3.5
